According to PMC7924852, “The Emericellipsins A–E from an Alkalophilic Fungus Emericellopsis alkalina Show Potent Activity against Multidrug-Resistant Pathogenic Fungi” (Journal of Fungi, 2021):
Converted amounts (≈) assume the structure as drawn.

Experiments:
[1] = system: Aspergillus niger ATCC 16404; assay: Disc-diffusion antifungal assay; format: cell-based
A. niger 1133 m [2] = assay: Disc-diffusion antifungal assay; format: cell-based, Aspergillus niger; details: pathogenic clinical isolate
A. fumigatus VKM F-37 [3] = assay: Disc-diffusion antifungal assay; format: cell-based, Aspergillus fumigatus
A. fumigatus 390 m [4] = assay: Disc-diffusion antifungal assay; format: cell-based, Aspergillus fumigatus; details: pathogenic clinical isolate
A. terreus 3 K [5] = assay: Disc-diffusion antifungal assay; format: cell-based
A. terreus 497 [6] = assay: Disc-diffusion antifungal assay; format: cell-based; details: A. terreus 497, pathogenic clinical isolate
[7] = system: clinical isolates of Candida; assay: Disc-diffusion antifungal assay, clinical yeast isolates; format: cell-based; details: range over clinical isolates of Candida (Figure S2)
[8] = system: reference and clinical strains of Aspergillus; assay: Disc-diffusion antifungal assay, Aspergillus strains; format: cell-based
A. niger ATCC 16404 = assay: Broth two-fold microdilution MIC (CLSI); format: cell-based, Aspergillus niger
A. niger 1133 m [9] = assay: Broth two-fold microdilution MIC (CLSI); format: cell-based, Aspergillus niger; details: 48 h
A. terreus 3 K [10] = assay: Broth two-fold microdilution MIC (CLSI); format: cell-based; details: 48 h
A. terreus 497 [11] = assay: Broth two-fold microdilution MIC (CLSI); format: cell-based
A. fumigatus VKM F-37 [12] = assay: Broth two-fold microdilution MIC (CLSI); format: cell-based, Aspergillus fumigatus
A. fumigatus 390 m [13] = assay: Broth two-fold microdilution MIC (CLSI); format: cell-based, Aspergillus fumigatus; details: 48 h
Candida albicans 1402 [14] = assay: Broth microdilution MIC and MFC (CLSI); format: cell-based
C. glabrata 1402 [15] = assay: Broth microdilution MIC and MFC (CLSI); format: cell-based
C. krusei 1447 [16] = assay: Broth microdilution MIC and MFC (CLSI); format: cell-based
C. tropicalis 156 [17] = assay: Broth microdilution MIC and MFC (CLSI); format: cell-based
C. parapsilosis 571 [18] = assay: Broth microdilution MIC and MFC (CLSI); format: cell-based
[19] = system: Cryptococcus neoformans 297; assay: Broth microdilution MIC and MFC (CLSI); format: cell-based
C. laurentii 325m = assay: Broth microdilution MIC and MFC (CLSI); format: cell-based, Cr. laurentii; details: Papiliotrema laurentii
Aspergillus niger 1133m = assay: Sensititre YeastOne antifungal susceptibility test; format: cell-based; details: Aspergillus niger, 1133M
A. fumigatus 390m = assay: Sensititre YeastOne antifungal susceptibility test; format: cell-based; details: Aspergillus fumigatus, 390M
A. terreus 497 [20] = assay: Sensititre YeastOne antifungal susceptibility test; format: cell-based; details: Sensititre YeastOne; A. terreus 497
Candida albicans 1402 [21] = assay: Sensititre YeastOne antifungal susceptibility test; format: cell-based; details: Candida albicans, 1402
C. glabrata 1402 [22] = assay: Sensititre YeastOne antifungal susceptibility test; format: cell-based; details: Nakaseomyces glabratus, 1402
C. krusei 1447 [23] = assay: Sensititre YeastOne antifungal susceptibility test; format: cell-based; details: Pichia kudriavzevii, 1447
C. tropicalis 156 [24] = assay: Sensititre YeastOne antifungal susceptibility test; format: cell-based; details: Candida tropicalis, 156
C. parapsilosis 571 [25] = assay: Sensititre YeastOne antifungal susceptibility test; format: cell-based; details: Lodderomyces parapsilosis, 571
[26] = system: Cryptococcus neoformans 297; assay: Sensititre YeastOne antifungal susceptibility test; format: cell-based; details: Cryptococcus neoformans, 297
Cr. laurentii 325m = assay: Sensititre YeastOne antifungal susceptibility test; format: cell-based; details: Papiliotrema laurentii, 325M
[27] = system: isolates of Aspergillus spp.; assay: Broth microdilution MIC, ranges over mould isolates; format: cell-based; details: range over opportunistic and clinical isolates of Aspergillus spp. (Table 4)

C[C@@H]1[C@H](O)[C@@H](C)/C=C/C=C/C=C/C=C/C=C/C=C/C=C/[C@H](O[C@@H]2O[C@H](C)[C@@H](O)[C@H](N)[C@@H]2O)C[C@@H]2O[C@](O)(C[C@@H](O)C[C@@H](O)[C@H](O)CC[C@@H](O)C[C@@H](O)CC(=O)O[C@H]1C)C[C@H](O)[C@H]2C(=O)O [AmpB, Amphotericin B]
zone of inhibition at 40 µg/disc ([1]; Aspergillus niger, ATCC16404, A. niger ATCC 16404): 0 mm
zone of inhibition at 40 µg/disc (A. niger 1133 m [2]; Aspergillus niger): 10 ± 0.14 mm
zone of inhibition at 40 µg/disc (A. fumigatus VKM F-37 [3]; Aspergillus fumigatus, VKMF37): 12 ± 0.23 mm
zone of inhibition at 40 µg/disc (A. fumigatus 390 m [4]; Aspergillus fumigatus): 15 ± 0.51 mm
zone of inhibition at 40 µg/disc (A. terreus 3 K [5]; Aspergillus terreus): 0 mm
zone of inhibition at 40 µg/disc (A. terreus 497 [6]; Aspergillus terreus): 0 mm
inhibition zones [7]: 10–12 mm
inhibition zones ([8]; range over clinical isolates of Aspergillus (Figure S2)): 15–17 mm
MIC (A. niger ATCC 16404; Aspergillus niger, ATCC16404, 48 h, pH 7, read-out: Minimal Inhibitory Concentration (MIC)): 1 µg/mL (≈ 1.08 µM)
MIC (A. niger 1133 m [9]; Aspergillus niger, 1133M, pH 7, read-out: Minimal Inhibitory Concentration (MIC)): 1 µg/mL (≈ 1.08 µM)
MIC (A. terreus 3 K [10]; Aspergillus terreus, 3K, pH 7, read-out: Minimal Inhibitory Concentration (MIC)): > 64 µg/mL
MIC (A. terreus 497 [11]; Aspergillus terreus, 497, 48 h, pH 7, read-out: Minimal Inhibitory Concentration (MIC)): > 64 µg/mL
MIC (A. fumigatus VKM F-37 [12]; Aspergillus fumigatus, VKMF37, 48 h, pH 7, read-out: Minimal Inhibitory Concentration (MIC)): 1 µg/mL (≈ 1.08 µM)
MIC (A. fumigatus 390 m [13]; Aspergillus fumigatus, 390M, pH 7, read-out: Minimal Inhibitory Concentration (MIC)): 1 µg/mL (≈ 1.08 µM)
MFC (Candida albicans 1402 [14]; Candida albicans 1402, lowest concentration causing 95% death, plated on PDA agar, read-out: MFC): 0.5 µg/mL (≈ 0.541 µM)
MIC (Candida albicans 1402 [14]; Candida albicans 1402 clinical isolate, RPMI 1640 pH 7.0, 35 °C, 24 h, read-out: MIC): 0.5 µg/mL (≈ 0.541 µM)
MIC (C. glabrata 1402 [15]; Nakaseomyces glabratus, 1402, 24 h, pH 7): 1 µg/mL (≈ 1.08 µM)
MFC (C. glabrata 1402 [15]; Nakaseomyces glabratus, C. glabrata 1402, lowest concentration causing 95% death, read-out: MFC): 1 µg/mL (≈ 1.08 µM)
MIC (C. krusei 1447 [16]; Pichia kudriavzevii, 1447, 24 h, pH 7): 2 µg/mL (≈ 2.16 µM)
MFC (C. krusei 1447 [16]; Pichia kudriavzevii, C. krusei 1447, lowest concentration causing 95% death, read-out: MFC): 4 µg/mL (≈ 4.33 µM)
MIC (C. tropicalis 156 [17]; Candida tropicalis, 156, 24 h, pH 7): 0.5 µg/mL (≈ 0.541 µM)
MFC (C. tropicalis 156 [17]; Candida tropicalis, C. tropicalis 156, lowest concentration causing 95% death, read-out: MFC): 1 µg/mL (≈ 1.08 µM)
MIC (C. parapsilosis 571 [18]; Lodderomyces parapsilosis, 571, 24 h, pH 7): 1 µg/mL (≈ 1.08 µM)
MFC (C. parapsilosis 571 [18]; Lodderomyces parapsilosis, C. parapsilosis 571, lowest concentration causing 95% death, read-out: MFC): 1 µg/mL (≈ 1.08 µM)
MFC ([19]; Cryptococcus neoformans 297, lowest concentration causing 95% death, read-out: MFC): 1 µg/mL (≈ 1.08 µM)
MIC ([19]; Cryptococcus neoformans, 297, 24 h, pH 7): 0.5 µg/mL (≈ 0.541 µM)
MIC (C. laurentii 325m; 325M, 24 h, pH 7): 0.25 µg/mL (≈ 0.271 µM)
MFC (C. laurentii 325m; C. laurentii 325m, lowest concentration causing 95% death, read-out: MFC): 0.5 µg/mL (≈ 0.541 µM)
MIC (Aspergillus niger 1133m): 1 µg/mL (≈ 1.08 µM)
MIC (A. fumigatus 390m): 1 µg/mL (≈ 1.08 µM)
MIC (class symbol) (A. terreus 497 [20]): R
MIC (Candida albicans 1402 [21]): 0.5 µg/mL (≈ 0.541 µM)
MIC (C. glabrata 1402 [22]): 1 µg/mL (≈ 1.08 µM)
MIC (C. krusei 1447 [23]): 2 µg/mL (≈ 2.16 µM)
MIC (C. tropicalis 156 [24]): 0.5 µg/mL (≈ 0.541 µM)
MIC (C. parapsilosis 571 [25]): 1 µg/mL (≈ 1.08 µM)
MIC [26]: 1 µg/mL (≈ 1.08 µM)
MIC (Cr. laurentii 325m): 0.5 µg/mL (≈ 0.541 µM)

Methyldecanoyl-MePro-AHMOD-Ala-Aib-Ile-Aib-βAla-Alaol-Glyol [EmiB, emericellipsin B, homologue of emericellipsin A, nonribosomal peptaibol]
Zone of Inhibition ([1]; 40 µg/disc, A. niger ATCC 16404): 10 ± 0.13 mm
Zone of Inhibition (A. niger 1133 m [2]; 40 µg/disc): 11 ± 0.170 mm
Zone of Inhibition (A. fumigatus VKM F-37 [3]; 40 µg/disc): 0 mm
Zone of Inhibition (A. fumigatus 390 m [4]; 40 µg/disc): 0 mm
Zone of Inhibition (A. terreus 3 K [5]; 40 µg/disc): 0 mm
Zone of Inhibition (A. terreus 497 [6]; 40 µg/disc): 0 mm
antifungal activity against Aspergillus strains (in words) ([8]; disc-diffusion, reference and clinical strains of Aspergillus): low activity only against A. niger strains
Minimal Inhibitory Concentration (MIC) (A. niger ATCC 16404; A. niger ATCC 16404, RPMI 1640 pH 7.0, 35 °C, 48 h, no visible growth): 8 µg/mL
Minimal Inhibitory Concentration (MIC) (A. niger 1133 m [9]; A. niger 1133 m clinical isolate, RPMI 1640 pH 7.0, 35 °C): 8 µg/mL
Minimal Inhibitory Concentration (MIC) (A. terreus 3 K [10]; A. terreus 3 K, RPMI 1640 pH 7.0, 35 °C): 4 µg/mL
Minimal Inhibitory Concentration (MIC) (A. terreus 497 [11]; A. terreus 497 clinical isolate, RPMI 1640 pH 7.0, 35 °C, 48 h): 4 µg/mL
Minimal Inhibitory Concentration (MIC) (A. fumigatus VKM F-37 [12]; A. fumigatus VKM F-37, RPMI 1640 pH 7.0, 35 °C, 48 h): 8 µg/mL
Minimal Inhibitory Concentration (MIC) (A. fumigatus 390 m [13]; A. fumigatus 390 m clinical isolate, RPMI 1640 pH 7.0, 35 °C): 8 µg/mL
MIC range [27]: 4 to 8 µg/mL
